This note sets out measurements from ChEMBL document CHEMBL4507274 (2021).

The target in test [1] is T1, Aurora kinase A (Homo sapiens) (UniProt O14965).
T1 sequence (whole entry): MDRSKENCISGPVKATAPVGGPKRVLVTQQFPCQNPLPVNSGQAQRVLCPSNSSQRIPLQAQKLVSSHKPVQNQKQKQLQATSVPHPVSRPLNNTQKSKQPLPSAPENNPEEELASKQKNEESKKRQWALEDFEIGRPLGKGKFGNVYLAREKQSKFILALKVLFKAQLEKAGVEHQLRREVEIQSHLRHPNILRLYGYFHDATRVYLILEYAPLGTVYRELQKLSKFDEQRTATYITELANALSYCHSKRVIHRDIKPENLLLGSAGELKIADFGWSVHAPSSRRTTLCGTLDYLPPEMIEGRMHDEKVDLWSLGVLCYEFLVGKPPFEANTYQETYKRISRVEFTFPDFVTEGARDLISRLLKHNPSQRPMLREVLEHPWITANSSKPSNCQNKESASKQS
Description: Aurora A (h) Upstate kinase activity assay. To be noted: Compound concentration 10.0 uM.

For test [2], the target named is Ribosomal protein S6 kinase alpha-3 (Homo sapiens) (UniProt P51812). Description: Rsk2 (h) Upstate kinase activity assay. To be noted: Compound concentration 10.0 uM.
Sequence of Ribosomal protein S6 kinase alpha-3 (Homo sapiens) (P51812 whole entry): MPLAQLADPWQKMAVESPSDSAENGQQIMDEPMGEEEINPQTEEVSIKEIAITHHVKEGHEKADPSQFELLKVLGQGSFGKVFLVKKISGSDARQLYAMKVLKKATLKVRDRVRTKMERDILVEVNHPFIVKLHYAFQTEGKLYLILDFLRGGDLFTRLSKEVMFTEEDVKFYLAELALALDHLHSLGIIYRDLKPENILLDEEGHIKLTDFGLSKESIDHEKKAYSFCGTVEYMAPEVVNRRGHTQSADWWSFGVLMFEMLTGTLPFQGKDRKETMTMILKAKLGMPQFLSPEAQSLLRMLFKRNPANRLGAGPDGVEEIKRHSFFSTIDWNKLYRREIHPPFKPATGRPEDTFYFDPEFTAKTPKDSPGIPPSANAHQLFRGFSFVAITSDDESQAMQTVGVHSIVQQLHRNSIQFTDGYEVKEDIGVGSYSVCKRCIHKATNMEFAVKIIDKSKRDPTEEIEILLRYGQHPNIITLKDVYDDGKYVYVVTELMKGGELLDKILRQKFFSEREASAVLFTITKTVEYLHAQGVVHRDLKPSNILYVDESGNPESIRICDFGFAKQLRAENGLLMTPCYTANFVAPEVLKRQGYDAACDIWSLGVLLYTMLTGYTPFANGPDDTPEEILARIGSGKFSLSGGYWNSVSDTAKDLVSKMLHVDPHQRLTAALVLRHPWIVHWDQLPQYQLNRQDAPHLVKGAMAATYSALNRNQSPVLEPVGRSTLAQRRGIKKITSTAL
For test [3], the target named is RAF proto-oncogene serine/threonine-protein kinase (Homo sapiens) (UniProt P04049). Description: c-RAF (h) Upstate kinase activity assay. To be noted: Compound concentration 10.0 uM.
Sequence of RAF proto-oncogene serine/threonine-protein kinase (Homo sapiens) (P04049 whole entry): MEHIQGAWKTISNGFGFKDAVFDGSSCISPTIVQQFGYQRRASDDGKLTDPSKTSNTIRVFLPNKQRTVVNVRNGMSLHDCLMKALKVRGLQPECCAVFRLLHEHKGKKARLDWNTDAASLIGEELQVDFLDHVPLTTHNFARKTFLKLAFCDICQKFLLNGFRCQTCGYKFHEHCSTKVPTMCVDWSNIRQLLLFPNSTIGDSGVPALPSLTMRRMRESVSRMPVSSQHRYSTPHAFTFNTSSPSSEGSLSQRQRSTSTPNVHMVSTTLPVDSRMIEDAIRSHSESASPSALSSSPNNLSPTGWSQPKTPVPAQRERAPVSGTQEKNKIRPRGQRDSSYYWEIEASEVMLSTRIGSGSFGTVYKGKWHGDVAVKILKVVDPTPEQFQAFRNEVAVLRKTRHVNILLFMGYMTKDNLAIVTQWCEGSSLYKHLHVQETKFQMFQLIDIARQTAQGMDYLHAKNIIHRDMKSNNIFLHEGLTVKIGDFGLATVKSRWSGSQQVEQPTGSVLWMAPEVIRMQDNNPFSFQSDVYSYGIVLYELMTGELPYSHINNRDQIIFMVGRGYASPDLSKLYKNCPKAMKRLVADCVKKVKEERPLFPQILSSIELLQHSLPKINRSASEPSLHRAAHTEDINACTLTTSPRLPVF
For test [4], the system named is U-937. Description: Lymphoma U937 cell line MDS Pharma Services Proliferation Assay. The class given is functional, cell-based, Homo sapiens.
The target of test [5] is cAMP-dependent protein kinase catalytic subunit alpha (Homo sapiens) (UniProt P17612). Description: PKA (h) Upstate kinase activity assay. To be noted: Compound concentration 10.0 uM.
Test [6] addresses Tyrosine-protein kinase Lyn (Homo sapiens) (UniProt P07948). Description: Lyn (h) Upstate kinase activity assay. The conditions noted are these: Compound concentration 10.0 uM.
The target in test [7] is T2, Rho-associated protein kinase 2 (Homo sapiens, UniProt O75116). The conditions noted are these: Compound concentration 10.0 uM.
The target of test [8] is Tyrosine-protein kinase Blk (Mus musculus) (UniProt P16277). Description: Blk (m) Upstate kinase activity assay. The conditions noted are these: Compound concentration 10.0 uM.
Test [9] addresses T3, MAP kinase-activated protein kinase 5 (Homo sapiens) (UniProt Q8IW41).
T3 sequence (whole entry): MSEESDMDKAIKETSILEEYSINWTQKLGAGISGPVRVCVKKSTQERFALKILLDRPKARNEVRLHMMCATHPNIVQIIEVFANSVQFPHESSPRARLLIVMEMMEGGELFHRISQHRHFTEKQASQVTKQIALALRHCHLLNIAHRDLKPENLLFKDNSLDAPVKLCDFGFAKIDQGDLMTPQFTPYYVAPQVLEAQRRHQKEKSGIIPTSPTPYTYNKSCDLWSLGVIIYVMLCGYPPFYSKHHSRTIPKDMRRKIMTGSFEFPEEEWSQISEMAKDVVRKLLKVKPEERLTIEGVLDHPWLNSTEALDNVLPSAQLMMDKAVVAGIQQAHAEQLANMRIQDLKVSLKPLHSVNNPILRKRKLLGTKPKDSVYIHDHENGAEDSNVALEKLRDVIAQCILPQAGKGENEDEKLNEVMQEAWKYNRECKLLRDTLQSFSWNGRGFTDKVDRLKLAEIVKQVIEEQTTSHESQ
Description: PRAK (h) Upstate kinase activity assay. To be noted: Compound concentration 10.0 uM.

The target of test [10] is Sigma intracellular receptor 2 (Homo sapiens) (UniProt Q5BJF2). The conditions noted are these: Compound concentration 10.0 uM.
Sequence of Sigma intracellular receptor 2 (Homo sapiens) (Q5BJF2 whole entry): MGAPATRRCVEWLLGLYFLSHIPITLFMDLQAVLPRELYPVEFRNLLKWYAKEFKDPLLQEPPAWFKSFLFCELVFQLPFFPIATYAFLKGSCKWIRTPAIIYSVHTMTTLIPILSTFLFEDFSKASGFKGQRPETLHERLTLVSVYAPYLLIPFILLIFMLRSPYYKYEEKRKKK
Test [11] has as its target Tyrosine-protein kinase Yes (Homo sapiens) (UniProt P07947). Description: Yes (h) Upstate kinase activity assay. To be noted: Compound concentration 10.0 uM.
Test [12] has as its target Insulin receptor (Homo sapiens) (UniProt P06213). Description: IR (h) Upstate kinase activity assay. To be noted: Compound concentration 10.0 uM.
The target in test [13] is Tyrosine-protein kinase ABL1 (Mus musculus) (UniProt P00520). Description: Abl (m) Upstate kinase activity assay. The conditions noted are these: Compound concentration 10.0 uM.
Test [14] addresses Cyclin-dependent kinase 3 (Homo sapiens) (UniProt Q00526). Description: CDK3/ cyclin E (h) Upstate kinase activity assay. To be noted: Compound concentration 10.0 uM.
Test [15] has as its target RAC-gamma serine/threonine-protein kinase (Homo sapiens) (UniProt Q9Y243). Description: PKBγgamma(h) Upstate kinase activity assay. To be noted: Compound concentration 10.0 uM.
The target in test [16] is T4, Serine/threonine-protein kinase Chk1 (Homo sapiens) (UniProt O14757).
T4 sequence (whole entry): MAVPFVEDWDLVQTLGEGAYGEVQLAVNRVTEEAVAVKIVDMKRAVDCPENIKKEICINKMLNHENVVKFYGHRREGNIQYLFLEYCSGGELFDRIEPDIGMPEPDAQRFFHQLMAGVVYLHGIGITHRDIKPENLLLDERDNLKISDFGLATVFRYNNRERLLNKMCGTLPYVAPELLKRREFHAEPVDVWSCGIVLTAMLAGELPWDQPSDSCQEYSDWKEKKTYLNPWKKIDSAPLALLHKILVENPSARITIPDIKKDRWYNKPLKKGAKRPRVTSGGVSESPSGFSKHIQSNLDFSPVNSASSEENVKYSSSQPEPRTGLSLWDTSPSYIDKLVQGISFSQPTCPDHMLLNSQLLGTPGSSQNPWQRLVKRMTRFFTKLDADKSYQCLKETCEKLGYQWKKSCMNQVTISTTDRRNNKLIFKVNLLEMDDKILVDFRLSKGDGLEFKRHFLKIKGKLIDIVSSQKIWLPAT
Description: CHK1 (h) Upstate kinase activity assay. The conditions noted are these: Compound concentration 10.0 uM.

Test [17] addresses Ephrin type-A receptor 2 (Homo sapiens) (UniProt P29317). Description: EphA2 (h) Upstate kinase activity assay. The conditions noted are these: Compound concentration 10.0 uM.
Test [18] can be described thus: Leukemia […] cell line MDS Pharma Services Proliferation Assay. The class given is functional, cell-based, Homo sapiens.
For test [19], the species on record is Rattus norvegicus. Description: Rsk1 (r) Upstate kinase activity assay. The conditions noted are these: Compound concentration 10.0 uM.
Test [20] deals with Epidermal growth factor receptor (Homo sapiens), P00533 [T790M]. The conditions noted are these: Compound concentration 100.0 nM.
The target in test [21] is T2, Rho-associated protein kinase 2. Description: Biochemical ROCK2 assay.
In test [22] the test system is Epidermal growth factor receptor (Homo sapiens), P00533 [UNDEFINED MUTATION]. To be noted: Compound concentration 100.0 nM.
Test [23] deals with Calcium/calmodulin-dependent protein kinase type II subunit beta (Homo sapiens) (UniProt Q13554). The conditions noted are these: Compound concentration 100.0 nM.
Sequence of Calcium/calmodulin-dependent protein kinase type II subunit beta (Homo sapiens) (Q13554 whole entry): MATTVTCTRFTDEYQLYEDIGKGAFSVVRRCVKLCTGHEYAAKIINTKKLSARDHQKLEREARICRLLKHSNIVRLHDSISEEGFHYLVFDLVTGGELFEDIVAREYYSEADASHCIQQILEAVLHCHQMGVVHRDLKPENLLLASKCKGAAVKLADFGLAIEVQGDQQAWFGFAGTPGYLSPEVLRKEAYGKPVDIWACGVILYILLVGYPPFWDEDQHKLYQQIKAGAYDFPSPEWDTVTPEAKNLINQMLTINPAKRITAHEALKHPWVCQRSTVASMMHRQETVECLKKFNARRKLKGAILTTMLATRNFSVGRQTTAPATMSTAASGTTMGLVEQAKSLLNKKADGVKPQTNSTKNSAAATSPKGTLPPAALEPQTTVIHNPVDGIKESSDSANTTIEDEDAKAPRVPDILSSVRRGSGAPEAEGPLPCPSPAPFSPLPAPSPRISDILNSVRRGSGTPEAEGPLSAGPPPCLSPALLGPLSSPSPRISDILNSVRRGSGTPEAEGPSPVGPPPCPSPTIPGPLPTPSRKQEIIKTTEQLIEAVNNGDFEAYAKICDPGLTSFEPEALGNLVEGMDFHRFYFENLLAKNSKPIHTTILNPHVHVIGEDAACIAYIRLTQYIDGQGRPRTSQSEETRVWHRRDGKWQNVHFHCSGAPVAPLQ

The structures appear in SMILES notation. A value given as a limit tells only on which side of the number the result lay.

Sequence of RAC-gamma serine/threonine-protein kinase (Homo sapiens) (Q9Y243 whole entry): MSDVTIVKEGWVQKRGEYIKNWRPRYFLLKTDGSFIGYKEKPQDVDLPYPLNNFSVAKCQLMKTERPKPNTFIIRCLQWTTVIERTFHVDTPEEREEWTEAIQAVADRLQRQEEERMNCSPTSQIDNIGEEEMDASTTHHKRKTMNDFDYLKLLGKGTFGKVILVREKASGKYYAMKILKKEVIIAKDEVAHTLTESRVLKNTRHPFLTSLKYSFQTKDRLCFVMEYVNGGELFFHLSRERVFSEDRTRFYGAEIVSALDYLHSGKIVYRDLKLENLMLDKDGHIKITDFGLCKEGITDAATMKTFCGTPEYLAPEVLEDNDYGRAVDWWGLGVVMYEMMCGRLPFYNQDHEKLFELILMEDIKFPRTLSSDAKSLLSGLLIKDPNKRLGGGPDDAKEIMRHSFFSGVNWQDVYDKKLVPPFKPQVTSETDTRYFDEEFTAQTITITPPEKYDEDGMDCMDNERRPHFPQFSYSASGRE
Sequence of Insulin receptor (Homo sapiens) (P06213 28-758 limits assumed): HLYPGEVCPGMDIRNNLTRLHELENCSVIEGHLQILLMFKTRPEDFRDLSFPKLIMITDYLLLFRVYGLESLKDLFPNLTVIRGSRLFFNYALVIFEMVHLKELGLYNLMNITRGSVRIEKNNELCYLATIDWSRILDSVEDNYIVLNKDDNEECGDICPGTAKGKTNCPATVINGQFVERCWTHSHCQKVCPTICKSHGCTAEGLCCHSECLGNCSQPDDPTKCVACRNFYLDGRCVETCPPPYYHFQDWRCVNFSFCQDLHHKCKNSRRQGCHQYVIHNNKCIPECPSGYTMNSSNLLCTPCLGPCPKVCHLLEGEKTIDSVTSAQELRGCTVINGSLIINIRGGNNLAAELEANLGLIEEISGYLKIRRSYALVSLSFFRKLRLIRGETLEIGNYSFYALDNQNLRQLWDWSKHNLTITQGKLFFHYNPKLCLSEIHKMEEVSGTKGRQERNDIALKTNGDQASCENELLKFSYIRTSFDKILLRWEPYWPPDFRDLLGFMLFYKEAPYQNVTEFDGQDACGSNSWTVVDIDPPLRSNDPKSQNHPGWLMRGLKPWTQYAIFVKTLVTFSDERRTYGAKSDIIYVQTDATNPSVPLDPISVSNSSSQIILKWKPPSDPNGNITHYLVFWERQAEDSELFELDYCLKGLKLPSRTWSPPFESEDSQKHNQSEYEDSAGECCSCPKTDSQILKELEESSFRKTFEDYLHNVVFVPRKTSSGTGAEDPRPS
Sequence of Insulin receptor (Homo sapiens) (P06213 763-1382 limits assumed): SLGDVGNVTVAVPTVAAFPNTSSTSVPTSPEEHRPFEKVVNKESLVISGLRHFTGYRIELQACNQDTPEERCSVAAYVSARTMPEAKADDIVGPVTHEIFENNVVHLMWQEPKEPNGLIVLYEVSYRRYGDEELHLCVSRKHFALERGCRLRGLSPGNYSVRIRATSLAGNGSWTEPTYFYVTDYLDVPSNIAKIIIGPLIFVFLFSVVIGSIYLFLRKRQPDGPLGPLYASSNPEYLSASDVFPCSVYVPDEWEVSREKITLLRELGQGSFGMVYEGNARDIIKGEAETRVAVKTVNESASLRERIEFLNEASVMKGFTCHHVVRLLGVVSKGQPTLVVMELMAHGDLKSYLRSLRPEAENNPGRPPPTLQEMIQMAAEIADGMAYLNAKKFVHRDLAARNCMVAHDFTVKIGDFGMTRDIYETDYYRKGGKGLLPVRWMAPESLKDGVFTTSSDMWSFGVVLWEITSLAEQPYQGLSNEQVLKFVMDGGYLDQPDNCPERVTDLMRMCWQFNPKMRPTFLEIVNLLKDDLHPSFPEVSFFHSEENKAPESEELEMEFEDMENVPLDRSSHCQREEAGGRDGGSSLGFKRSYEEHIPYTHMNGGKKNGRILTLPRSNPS
Sequence of Tyrosine-protein kinase Yes (Homo sapiens) (P07947 2-543 limits assumed): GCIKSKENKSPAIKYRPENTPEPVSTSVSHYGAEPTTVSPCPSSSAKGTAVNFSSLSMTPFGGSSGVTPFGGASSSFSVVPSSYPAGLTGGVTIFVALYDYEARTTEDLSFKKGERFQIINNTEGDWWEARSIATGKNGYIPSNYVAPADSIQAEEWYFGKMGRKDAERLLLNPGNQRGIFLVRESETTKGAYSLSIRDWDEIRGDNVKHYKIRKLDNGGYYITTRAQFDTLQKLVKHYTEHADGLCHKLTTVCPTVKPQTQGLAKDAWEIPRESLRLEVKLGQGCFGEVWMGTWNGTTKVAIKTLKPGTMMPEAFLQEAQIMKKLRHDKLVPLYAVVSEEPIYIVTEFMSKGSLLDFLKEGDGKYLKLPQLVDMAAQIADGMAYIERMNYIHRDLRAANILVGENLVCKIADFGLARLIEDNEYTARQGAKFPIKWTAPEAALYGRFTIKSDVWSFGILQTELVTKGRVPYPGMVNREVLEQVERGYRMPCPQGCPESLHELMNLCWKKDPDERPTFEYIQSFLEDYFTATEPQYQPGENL
Sequence of Cyclin-dependent kinase 3 (Homo sapiens) (Q00526 whole entry, looked up): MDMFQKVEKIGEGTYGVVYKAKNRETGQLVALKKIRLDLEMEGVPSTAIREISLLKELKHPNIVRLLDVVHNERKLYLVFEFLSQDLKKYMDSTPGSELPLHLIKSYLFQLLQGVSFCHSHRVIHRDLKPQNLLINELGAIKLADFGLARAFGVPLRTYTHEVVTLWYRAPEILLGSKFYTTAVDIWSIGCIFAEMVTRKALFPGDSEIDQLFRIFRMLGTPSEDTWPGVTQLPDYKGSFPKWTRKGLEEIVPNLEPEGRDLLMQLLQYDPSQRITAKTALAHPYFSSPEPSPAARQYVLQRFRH

What is called inhibition is the drop in the measured response relative to a control, in per cent. As usually defined, the IC50 is the midpoint of a concentration-inhibition curve. A higher IC50 goes with lower potency. Usually TGI stands for the concentration giving total growth inhibition. Low values mean more potent growth arrest, high ones less potent growth arrest. For the molecule `Cc1c[nH]c2nccc(Oc3c(F)cc(Nc4cc(Cl)nc(N)n4)cc3F)c12` [BAY-549], the inhibition in [1] was 77%; in test [2], 61%; in [3] it was 76%; in test [5] it was 95%; in test [6], 31%; in test [7] it was 100%. For the same molecule, the inhibition in test [8] was 16%; in test [9], 36%; in test [10] it was 31.9%; in test [11] it was 23%; in [12], 59%; in [13] it was 33%. For the same molecule, the inhibition is 33% in [14]; 87% in [15]; 9% in test [16]; 4% in test [17]; 79% in test [19]. In addition, the half-inhibitory concentration (IC50) in [4] (Homo sapiens, U-937) is 14 µM; in test [18] (Homo sapiens, Leukemia 1-IL-60), 21 µM. For the same molecule, the TGI was more than 100 µM in [4] (Homo sapiens, U-937) and more than 100 µM in [18] (Homo sapiens, Leukemia 1-IL-60). The CC50 was more than 100 µM in [4] (Homo sapiens, U-937, read-out: LC50 (the source's name)) and more than 100 µM in test [18] (Homo sapiens, Leukemia 1-IL-60, read-out: LC50 (the source's name)). Besides, the “Mean % growth (n = 2) for 0.01 µM probe concentration” value in test [4] (± SEM 1 % growth) was found to be 101%; in [18] (± SEM 4 % growth), 98%. The “Mean % growth (n = 2) for 0.1 µM probe concentration” value was found to be 103% in test [4] (± SEM 2 % growth) and 88% in [18] (± SEM 4 % growth). The entries for the “Mean % growth (n = 2) for 1.0 µM probe concentration” value in test [4] (± SEM 2 % growth) and in [18] (± SEM 5 % growth) were 104% and 89%, respectively. Further, the “Mean % growth (n = 2) for 100.0 µM probe concentration” value in test [4] (± SEM 5 % growth) was found to be 17%; in test [18] (± SEM 2 % growth) it was 35%. Besides, the results for the “Mean % growth (n = 2) for 10.0 µM probe concentration” value in [4] (± SEM 7 % growth) and in [18] (± SEM 6 % growth) were 56% and 53%, respectively.

As a reminder, the residual activity is the signal under treatment as a percentage of the control signal. As for `Cn1cc(Cl)c2c(Oc3c(F)cc(Nc4cc(Cl)nc(N)n4)cc3F)ccnc21` [BAY-4900], the results for the residual activity in [20], in test [22] and in [23] were 88%, 73% and 100%, respectively. In addition, the IC50 in test [21] is recorded as 17.7 µM (not active).
